{"source": "patent US20150087622A1", "about": "“NEW METHOD OF USE OF A PESTICIDE” (SYNGENTA PARTICIPATIONS AG, priority 2012, published 2015)", "key": {"[1]": {"system": "Diabrotica balteata", "test": "Transovarial effects on Diabrotica balteata adults fed on sprayed bean plants (% egg mortality)", "type": "in vivo", "settings": "for mortality at 10 ppm / mortality at 25 ppm / mortality at 50 ppm: Diabrotica balteata", "method": "The following IGRs in Table 1 were tested for their transovarial effects on Diabrotica balteata by observing percentage egg mortality.\nBean plants (Phaseolus vulgaris, var. Amata) were treated in an automatic spray chamber (ARO-1) with around 500 l/ha. After drying of the spray deposits, plants were placed in gauze cages and infested with newly hatched (0-24 h old) Diabrotica balteata adults. After seven days, treated plants were removed and replaced by non-treated plants. From day seven to day 38 eggs were collected in three-day intervals, counted and checked on number of hatched larvae (% egg mortality). Percentage egg mortality was calculated as the number of unhatched eggs per total number of eggs laid."}, "[2]": {"system": "Spodoptera frugiperda", "test": "Foliar spray application on cotton, larval mortality of Spodoptera frugiperda", "type": "in vivo", "settings": "4 DAT (days after treatment)", "excerpt": "For example on both Spodoptera frugiperda and Plutella xylostella similar activities were obtained for the same rates: […]"}, "[3]": {"system": "Colorado potato beetle", "settings": "cited from earlier work"}, "[4]": {"settings": "egg laying period 1, read-out: % egg mortality: on egg laying period 1"}, "[5]": {"settings": "egg laying period 2, read-out: % egg mortality: on egg laying period 2"}, "[6]": {"settings": "egg laying period 3, read-out: % egg mortality: on egg laying period 3"}, "[7]": {"settings": "egg laying period 4, read-out: % egg mortality: on egg laying period 4"}, "[8]": {"settings": "egg laying period 5, read-out: % egg mortality: on egg laying period 5"}, "[9]": {"settings": "egg laying period 6, read-out: % egg mortality: on egg laying period 6"}, "[10]": {"settings": "egg laying period 7, read-out: % egg mortality: on egg laying period 7"}, "[11]": {"settings": "egg laying period 8, read-out: % egg mortality: on egg laying period 8"}, "[12]": {"settings": "egg laying period 9, read-out: % egg mortality: on egg laying period 9"}, "[13]": {"settings": "egg laying period 10, read-out: % egg mortality: on egg laying period 10"}, "[14]": {"settings": "egg laying period 11, read-out: % egg mortality: on egg laying period 11"}, "[15]": {"settings": "egg laying period 12, read-out: % egg mortality: on egg laying period 12"}}, "note": "Read-outs that look alike come from different tables or passages of the source.", "data": [{"smiles": "O=C(NC(=O)c1c(F)cccc1F)Nc1ccc(OC(F)(F)C(F)OC(F)(F)F)c(Cl)c1", "note": "(single isomer, unassigned; (+)) [Rimon, (+)-I-[3-chloro-4-(1,1,2-trifluoro-2-trifluoromethoxyethoxy)phenyl]-3-(2,6-difluorobenzoyl)urea]", "values": [{"measurement": "total number of sterilised (unhatched) eggs, considered over the whole test period", "setting": "[1]; 5 g AI ha^-1", "result": "≈ 25%"}, {"measurement": "total number of sterilised (unhatched) eggs, considered over the whole test period", "setting": "[1]; 12.5 g AI ha^-1", "result": "≈ 25%"}, {"measurement": "total number of sterilised (unhatched) eggs, considered over the whole test period", "setting": "[1]; 25 g AI ha^-1", "result": "≈ 90%"}, {"measurement": "days of effect (egg hatch inhibition) after a single foliar treatment", "setting": "[1]; 50 g AI/ha during adult feeding on the crop plant", "result": "up to 21 days"}, {"measurement": "mortality at 10 ppm", "setting": "[1]; [4]", "result": 100, "unit": "%"}, {"measurement": "mortality at 10 ppm", "setting": "[1]; [5]", "result": 100, "unit": "%"}, {"measurement": "mortality at 10 ppm", "setting": "[1]; [6]", "result": 99, "unit": "%"}, {"measurement": "mortality at 10 ppm", "setting": "[1]; [7]", "result": 50, "unit": "%"}, {"measurement": "mortality at 10 ppm", "setting": "[1]; [8]", "result": 10, "unit": "%"}, {"measurement": "mortality at 10 ppm", "setting": "[1]; [9]", "result": 13, "unit": "%"}, {"measurement": "mortality at 10 ppm", "setting": "[1]; [10]", "result": 10, "unit": "%"}, {"measurement": "mortality at 10 ppm", "setting": "[1]; [11]", "result": 11, "unit": "%"}, {"measurement": "mortality at 10 ppm", "setting": "[1]; [12]", "result": 18, "unit": "%"}, {"measurement": "mortality at 10 ppm", "setting": "[1]; [13]", "result": 9, "unit": "%"}, {"measurement": "mortality at 10 ppm", "setting": "[1]; [14]", "result": 9, "unit": "%"}, {"measurement": "mortality at 10 ppm", "setting": "[1]; [15]", "result": 12, "unit": "%"}, {"measurement": "mortality at 25 ppm", "setting": "[1]; [4]", "result": 100, "unit": "%"}, {"measurement": "mortality at 25 ppm", "setting": "[1]; [5]", "result": 100, "unit": "%"}, {"measurement": "mortality at 25 ppm", "setting": "[1]; [6]", "result": 100, "unit": "%"}, {"measurement": "mortality at 25 ppm", "setting": "[1]; [7]", "result": 93, "unit": "%"}, {"measurement": "mortality at 25 ppm", "setting": "[1]; [9]", "result": 25, "unit": "%"}, {"measurement": "mortality at 25 ppm", "setting": "[1]; [10]", "result": 14, "unit": "%"}, {"measurement": "mortality at 25 ppm", "setting": "[1]; [12]", "result": 22, "unit": "%"}, {"measurement": "mortality at 25 ppm", "setting": "[1]; [13]", "result": 7, "unit": "%"}, {"measurement": "mortality at 25 ppm", "setting": "[1]; [14]", "result": 0, "unit": "%"}, {"measurement": "mortality at 25 ppm", "setting": "[1]; [15]", "result": 4, "unit": "%"}, {"measurement": "mortality at 50 ppm", "setting": "[1]; [5]", "result": 100, "unit": "%"}, {"measurement": "mortality at 50 ppm", "setting": "[1]; [6]", "result": 100, "unit": "%"}, {"measurement": "mortality at 50 ppm", "setting": "[1]; [7]", "result": 100, "unit": "%"}, {"measurement": "mortality at 50 ppm", "setting": "[1]; [8]", "result": 100, "unit": "%"}, {"measurement": "mortality at 50 ppm", "setting": "[1]; [9]", "result": 100, "unit": "%"}, {"measurement": "mortality at 50 ppm", "setting": "[1]; [10]", "result": 100, "unit": "%"}, {"measurement": "mortality at 50 ppm", "setting": "[1]; [11]", "result": 100, "unit": "%"}, {"measurement": "mortality at 50 ppm", "setting": "[1]; [12]", "result": 92, "unit": "%"}, {"measurement": "mortality at 50 ppm", "setting": "[1]; [13]", "result": 29, "unit": "%"}, {"measurement": "mortality at 50 ppm", "setting": "[1]; [14]", "result": 96, "unit": "%"}, {"measurement": "mortality at 50 ppm", "setting": "[1]; [15]", "result": 41, "unit": "%"}, {"measurement": "Spray interval", "setting": "[1]; Rate 5 g AI/ha", "result": 7, "unit": "days"}, {"measurement": "Spray interval", "setting": "[1]; Rate 12.5 g AI/ha", "result": 10, "unit": "days"}, {"measurement": "Spray interval", "setting": "[1]; Rate 25 g AI/ha", "result": 21, "unit": "days"}, {"measurement": "rank for transovarial activity on Diabrotica balteata", "setting": "[1]; among the IGRs tested", "result": "by far the best compound"}, {"measurement": "Transovarial effects on treated adults of Diabrotica balteata", "setting": "[1]; at the used dose rates", "result": "Transovarial effects can be observed"}, {"measurement": "LC50", "setting": "[2]", "result": "LC50 = 1.1 ppm"}, {"measurement": "ability to economically stop egg hatching in Colorado potato beetle", "setting": "[3]; 25 g AI ha^-1 (Cutler et al.)", "result": "insufficient"}, {"measurement": "viability of Colorado potato beetle eggs", "setting": "[3]; adults feeding on novaluron-treated potato leaves, 87 g AI ha^-1 (Alyokhin et al.)", "result": "reduced viability"}, {"measurement": "time of feeding on untreated leaves after which the effect reverses", "setting": "[3]; after 87 g AI ha^-1 (Alyokhin et al.)", "result": "48 to 96", "unit": "h"}]}]}
